According to the supplement of paper PMC10307832:

What was measured:
Assay in all cases: relative viability (nuclei count vs DMSO), 5 days (fraction); higher = more cells survive
[1] = compound: CC(C)N(CCCNC(=O)Nc1ccc(C(C)(C)C)cc1)C[C@H]1O[C@@H](n2ccc3c(N)ncnc32)[C@H](O)[C@@H]1O + CCNC(=O)c1noc(-c2cc(C(C)C)c(O)cc2O)c1-c1ccc(CN2CCOCC2)cc1 [Luminespib] (partner 0.01 µM)
Method in brief: (§1)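 Relative viability divides the nuclei count in treated wells by that in vehicle wells. Lung cancer cell lines were seeded in 1536-well plates, dosed by pin tool the next day, and fixed and stained after 5 days in one step with final 0.05% Triton X-100, 1% formaldehyde and 1 ug/ml Hoechst. Dosing was a single drug or a fixed anchor-drug dose plus five library-drug doses (not always all listed) in √10 steps, and values are medians of duplicate plates imaged at 4×.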

[2] = compound: CC(C)N(CCCNC(=O)Nc1ccc(C(C)(C)C)cc1)C[C@H]1O[C@@H](n2ccc3c(N)ncnc32)[C@H](O)[C@@H]1O + CS(=O)(=O)CCNCc1ccc(-c2ccc3ncnc(Nc4ccc(OCc5cccc(F)c5)c(Cl)c4)c3c2)o1 [Lapatinib] (partner 2 µM)
Method in brief: as §1

[3] = compound: CC(C)N(CCCNC(=O)Nc1ccc(C(C)(C)C)cc1)C[C@H]1O[C@@H](n2ccc3c(N)ncnc32)[C@H](O)[C@@H]1O + NC(=O)Nc1cc(-c2cccc(F)c2)sc1C(=O)N[C@H]1CCCNC1 [AZD7762] (partner 0.2 µM)
Method in brief: as §1

[4] = compound: CC(C)=CC[C@@H](O)C1=CC(=O)c2c(O)ccc(O)c2C1=O [Shikonin] + COc1cccc2cc(-c3nc([C@H]4CC[C@H](C(=O)O)CC4)n4ncnc(N)c34)[nH]c12 [OSI-027] (partner 0.5 µM)
Method in brief: as §1

| Cell Line | relative viability ([1]; first compound 0.08 µM) | relative viability ([1]; first compound 0.253 µM) | relative viability ([1]; first compound 0.8 µM) | relative viability ([1]; first compound 2.53 µM) | relative viability ([1]; first compound 8 µM) | relative viability ([2]; first compound 0.08 µM) | relative viability ([2]; first compound 0.253 µM) | relative viability ([2]; first compound 0.8 µM) | relative viability ([2]; first compound 2.53 µM) | relative viability ([2]; first compound 8 µM) | relative viability ([3]; first compound 0.08 µM) | relative viability ([3]; first compound 0.253 µM) | relative viability ([3]; first compound 2.53 µM) | relative viability ([3]; first compound 8 µM) | relative viability ([4]; first compound 0.01 µM) | relative viability ([4]; first compound 0.1 µM) | relative viability ([4]; first compound 0.3162 µM) | relative viability ([4]; first compound 1 µM) | relative viability ([3]; first compound 0.8 µM) |
| --- | --- | --- | --- | --- | --- | --- | --- | --- | --- | --- | --- | --- | --- | --- | --- | --- | --- | --- | --- |
| HCC-15 | 0.327 | 0.378 | 0.435 | 0.33 | 0.31 | 0.864 | 0.876 | 0.68 | 0.818 | 0.804 | 1.24 | 1.35 | 0.95 | 1.28 | 0.719 | 0.705 | 0.692 | 0.744 |  |
| HCC-44 | 0.972 | 1.06 | 1.1 | 1.15 | 1.03 | 1.08 | 1.11 | 0.857 | 1.05 | 0.959 | 1 | 1.1 | 1.04 | 0.929 | 0.512 | 0.513 | 0.466 | 0.747 | 0.897 |
| HCC-827 | 0.625 | 0.573 |  | 0.599 | 0.688 | 0.207 | 0.217 |  | 0.174 | 0.158 | 0.259 | 0.252 | 0.203 | 0.242 | 0.821 | 0.86 | 0.9 | 0.761 | 0.403 |
| HOP-62 | 0.94 | 0.928 | 0.817 | 0.863 | 0.9 | 1.02 | 0.797 | 0.858 | 0.958 | 0.764 | 0.681 | 0.51 | 0.777 | 0.322 | 0.967 | 1.06 | 1.03 | 0.826 | 0.517 |
| LC-2-ad | 0.935 | 0.973 | 1.07 | 0.893 | 1.03 | 0.937 | 0.906 | 0.925 | 0.966 | 0.835 | 0.834 | 0.802 | 0.787 | 0.771 | 0.815 | 0.913 | 0.816 | 0.876 | 0.677 |
| LCLC-97TM1 | 0.699 | 0.647 | 0.705 | 0.666 | 0.707 | 0.906 |  | 1.41 | 0.517 | 1.11 | 0.233 | 0.266 | 0.235 | 0.147 | 0.504 | 0.591 | 0.675 | 0.579 | 0.354 |
| LK-2 | 0.185 | 0.193 | 0.191 | 0.169 | 0.214 | 0.842 | 0.792 | 0.985 | 0.867 | 0.82 |  | 0.332 | 0.428 | 0.322 | 0.168 | 0.241 | 0.203 | 0.227 | 0.628 |
| LOU-NH91 | 0.381 | 0.328 | 0.283 | 0.333 | 0.368 | 0.643 | 0.731 |  | 0.83 | 0.773 | 0.751 | 0.697 | 0.763 | 0.767 | 0.718 | 0.813 | 0.786 | 0.726 |  |
| LU99A | 0.234 | 0.277 | 0.253 | 0.317 | 0.222 | 0.923 | 0.679 | 1.16 | 1.16 | 1.04 | 0.416 | 0.316 | 0.473 | 0.317 | 0.271 | 0.344 | 0.265 | 0.305 | 0.421 |
